Tests used:
RORα = target: T1, RORα (Homo sapiens, UniProt P35398); conditions: reporter gene assay, HEK293; read-out: RORα inverse agonistic activity (IC50); cited from earlier work
T1 construct: expressed in transfected cells; host or cells: HEK293
T1 sequence (P35398 1-523): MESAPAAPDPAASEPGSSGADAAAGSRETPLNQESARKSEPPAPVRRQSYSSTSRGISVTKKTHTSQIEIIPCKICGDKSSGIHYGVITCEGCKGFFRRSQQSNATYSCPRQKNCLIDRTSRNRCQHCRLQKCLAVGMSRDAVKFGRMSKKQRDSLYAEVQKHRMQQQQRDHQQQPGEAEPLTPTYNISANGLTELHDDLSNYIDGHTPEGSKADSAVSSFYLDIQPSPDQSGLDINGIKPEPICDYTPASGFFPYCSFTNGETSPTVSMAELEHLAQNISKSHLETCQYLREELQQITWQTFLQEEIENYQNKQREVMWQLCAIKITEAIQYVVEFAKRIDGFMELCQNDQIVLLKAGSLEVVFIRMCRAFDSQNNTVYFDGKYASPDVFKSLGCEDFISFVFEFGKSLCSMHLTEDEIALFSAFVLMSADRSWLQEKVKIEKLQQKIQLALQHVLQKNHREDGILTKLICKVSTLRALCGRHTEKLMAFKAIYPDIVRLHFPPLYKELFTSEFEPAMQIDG

LXRβ = target: T2, LXRβ (Homo sapiens, UniProt P55055); conditions: read-out: LXRβ antagonistic activity (IC50); cited from earlier work
T2 construct: CMX-GAL4N-hLXRβ-LBD; expressed in transfected cells; host or cells: HEK293
T2 sequence (P55055 222-460 limits assumed): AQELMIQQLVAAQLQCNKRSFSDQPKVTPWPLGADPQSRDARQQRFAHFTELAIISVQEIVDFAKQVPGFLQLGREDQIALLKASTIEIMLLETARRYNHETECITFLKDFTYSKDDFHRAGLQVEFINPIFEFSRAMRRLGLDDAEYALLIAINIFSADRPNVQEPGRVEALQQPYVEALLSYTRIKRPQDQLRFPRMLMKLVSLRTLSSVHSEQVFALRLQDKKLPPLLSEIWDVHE

[1] = tested on: LNCaP cells (T877A mutation in the AR LBD); test: PSA level (ELISA) in LNCaP cell line; format: cell-based, human; conditions: Homo sapiens, LNCaP, dihydrotestosterone 10 nM, 48 h, ± SEM
Description: Chronic administration of AR antagonists often leads to the development of resistance. […] In contrast, another AR antagonist, enzalutamide, was reported to antagonize AR mutant T877A [23]. Thus, development of a novel chemical class of AR antagonists, different from flutamide analogs seems an attractive approach for the treatment of AR antagonist-resistant cancer, providing further motivation to evaluate steroid surrogates. Therefore, we investigated the antiandrogenic activity of several potent AR antagonists by means of PSA (prostate-specific antigen, an AR-regulated gene) ELISA (enzyme-linked immunosorbent assay) in human prostate cancer cell line LNCaP, which has T877A mutation in the AR LBD.
The human prostate cancer cell line LNCaP (ECACC, London, UK) was routinely maintained in RPMI1640 containing 10% (v/v) fetal bovine serum, and penicillin/streptomycin at 37 °C in a humidified atmosphere of 5% CO2 in air. Cells were cultured in RPMI1640 without phenol red containing 10% (v/v) charcoal-stripped fetal bovine serum, and penicillin/streptomycin at 37 °C in a humidified atmosphere of 5% CO2 in air for 3 days. Then cells were plated in 96-well plates at 1 × 10^4 cells/well and incubated overnight. On the next day, cells were treated with fresh media containing test compound plus dihydrotestosterone (final concentration 10 nM), and incubated for 48 h. Then, PSA levels were measured in the culture supernatants, after 100-fold dilution with the medium, using ELISA (Immunospec Corp., CA, USA Free prostate-specific antigen cat. #E29-212) according to the manufacturer’s instructions. All data points were carried out twice in triplicate.

IC50 [1] [µM] | SMILES | IC50 (RORα) [µM] | IC50 (LXRβ) [µM]
> 10 | O=c1[nH]c2ccc(C(O)(C(F)(F)F)C(F)(F)F)cc2c2ccccc12 [Compound 1] | > 20 | 5.1
> 10 | Cn1c(=O)c2ccccc2c2cc(C(O)(C(F)(F)F)C(F)(F)F)ccc21 [Compound 13] | > 20 | > 20

Reference: PMC6073568, “Efficient Lead Finding, Activity Enhancement and Preliminary Selectivity Control of Nuclear Receptor Ligands Bearing a Phenanthridinone Skeleton” (International Journal of Molecular Sciences, 2018)
